# In PubChem BioAssay (NCI):
#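 Exposure lasted 48 hours, with cells grown in 96-well plates and compounds tested at five concentrations. TGI is the concentration that stops growth completely.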
# Columns and labels:
# Test in all cases: NCI anticancer screen, dose series, 48 h
# M19-MEL melanoma = tested on: M19-MEL melanoma
# SF-539 CNS = tested on: SF-539 CNS
# U251 CNS = tested on: U251 CNS
# CCRF-CEM leukemia = tested on: CCRF-CEM leukemia
# SNB-19 CNS = tested on: SNB-19 CNS
# NCI-H522 lung = tested on: NCI-H522 lung
# TK-10 renal = tested on: TK-10 renal
# RPMI-8226 leukemia = tested on: RPMI-8226 leukemia
# SNB-78 CNS = tested on: SNB-78 CNS
# OVCAR-3 ovarian = tested on: OVCAR-3 ovarian
# ACHN renal = tested on: ACHN renal
# DLD-1 colon = tested on: DLD-1 colon
# OVCAR-5 ovarian = tested on: OVCAR-5 ovarian
# EKVX NSCLC = tested on: EKVX NSCLC
# LXFL 529 NSCLC = tested on: LXFL 529 NSCLC
# HOP-18 NSCLC = tested on: HOP-18 NSCLC
# COLO 205 colon = tested on: COLO 205 colon
# HL-60(TB) leukemia = tested on: HL-60(TB) leukemia
# SN12C renal = tested on: SN12C renal
# KM20L2 colon = tested on: KM20L2 colon
# A549 NSCLC = tested on: A549 NSCLC
# NCI-H460 lung = tested on: NCI-H460 lung
# CAKI-1 renal = tested on: CAKI-1 renal
# HCC-2998 colon = tested on: HCC-2998 colon
# OVCAR-4 ovarian = tested on: OVCAR-4 ovarian
# A498 renal = tested on: A498 renal
# SF-268 CNS = tested on: SF-268 CNS
# SF-295 CNS = tested on: SF-295 CNS
# DMS 114 small cell lung = tested on: DMS 114 small cell lung
# MOLT-4 leukemia = tested on: MOLT-4 leukemia
# M14 melanoma = tested on: M14 melanoma
# SNB-75 CNS = tested on: SNB-75 CNS
# DMS 273 small cell lung = tested on: DMS 273 small cell lung
# UO-31 renal = tested on: UO-31 renal
# KM12 colon = tested on: KM12 colon
# HOP-62 NSCLC = tested on: HOP-62 NSCLC
# MALME-3M melanoma = tested on: MALME-3M melanoma
# HOP-92 NSCLC = tested on: HOP-92 NSCLC
# NCI-H23 lung = tested on: NCI-H23 lung
# K-562 leukemia = tested on: K-562 leukemia
# 786-0 renal = tested on: 786-0 renal
# UACC-257 melanoma = tested on: UACC-257 melanoma
# HCT-116 colon = tested on: HCT-116 colon
# UACC-62 melanoma = tested on: UACC-62 melanoma
# IGROV1 ovarian = tested on: IGROV1 ovarian
# SW-620 colon = tested on: SW-620 colon
# NCI-H226 lung = tested on: NCI-H226 lung
# HT29 colon = tested on: HT29 colon
# SK-MEL-28 melanoma = tested on: SK-MEL-28 melanoma
# HCT-15 colon = tested on: HCT-15 colon
# OVCAR-8 ovarian = tested on: OVCAR-8 ovarian
# SK-MEL-5 melanoma = tested on: SK-MEL-5 melanoma
# SK-OV-3 ovarian = tested on: SK-OV-3 ovarian
# RXF 393 renal = tested on: RXF 393 renal
# LOX IMVI melanoma = tested on: LOX IMVI melanoma
# RXF-631 renal = tested on: RXF-631 renal
# XF 498 CNS = tested on: XF 498 CNS
smiles,measurement,setting,value
O=C(/C=C/c1ccccc1Cl)c1ccccc1Cl,TGI,M19-MEL melanoma,61 µM
same,TGI,SF-539 CNS,36.7 µM
same,TGI,U251 CNS,30.8 µM
same,TGI,CCRF-CEM leukemia,44.9 µM
same,TGI,SNB-19 CNS,32.8 µM
same,TGI,NCI-H522 lung,38.1 µM
same,TGI,TK-10 renal,> 100 µM
same,TGI,RPMI-8226 leukemia,44.7 µM
same,TGI,SNB-78 CNS,69.2 µM
same,TGI,OVCAR-3 ovarian,33.9 µM
same,TGI,ACHN renal,31.1 µM
same,TGI,DLD-1 colon,33.4 µM
same,TGI,OVCAR-5 ovarian,46.4 µM
same,TGI,EKVX NSCLC,44.4 µM
same,TGI,LXFL 529 NSCLC,32 µM
same,TGI,HOP-18 NSCLC,89.2 µM
same,TGI,COLO 205 colon,44.8 µM
same,TGI,HL-60(TB) leukemia,47.1 µM
same,TGI,SN12C renal,41.4 µM
same,TGI,KM20L2 colon,33.3 µM
same,TGI,A549 NSCLC,61.5 µM
same,TGI,NCI-H460 lung,36 µM
same,TGI,CAKI-1 renal,38.1 µM
same,TGI,HCC-2998 colon,39.1 µM
same,TGI,OVCAR-4 ovarian,41.3 µM
same,TGI,A498 renal,> 100 µM
same,TGI,SF-268 CNS,50.5 µM
same,TGI,SF-295 CNS,51.2 µM
same,TGI,DMS 114 small cell lung,34.8 µM
same,TGI,MOLT-4 leukemia,60 µM
same,TGI,M14 melanoma,47.2 µM
same,TGI,SNB-75 CNS,74.9 µM
same,TGI,DMS 273 small cell lung,31.1 µM
same,TGI,UO-31 renal,34.3 µM
same,TGI,KM12 colon,29.3 µM
same,TGI,HOP-62 NSCLC,> 100 µM
same,TGI,MALME-3M melanoma,69.4 µM
same,TGI,HOP-92 NSCLC,77.2 µM
same,TGI,NCI-H23 lung,52.9 µM
same,TGI,K-562 leukemia,47.7 µM
same,TGI,786-0 renal,28.8 µM
same,TGI,UACC-257 melanoma,60.4 µM
same,TGI,HCT-116 colon,28.5 µM
same,TGI,UACC-62 melanoma,36.7 µM
same,TGI,IGROV1 ovarian,33.3 µM
same,TGI,SW-620 colon,26.2 µM
same,TGI,NCI-H226 lung,> 100 µM
same,TGI,HT29 colon,41.3 µM
same,TGI,SK-MEL-28 melanoma,36.5 µM
same,TGI,HCT-15 colon,28 µM
same,TGI,OVCAR-8 ovarian,33.6 µM
same,TGI,SK-MEL-5 melanoma,99.1 µM
same,TGI,SK-OV-3 ovarian,> 100 µM
CCc1nc2ccccc2c(=O)n1/N=C(\N=Nc1ccc(Cl)cc1)c1ccccc1Cl,TGI,RXF 393 renal,72.5 µM
same,TGI,M19-MEL melanoma,> 100 µM
same,TGI,SF-539 CNS,> 100 µM
same,TGI,U251 CNS,> 100 µM
same,TGI,TK-10 renal,> 100 µM
same,TGI,ACHN renal,> 100 µM
same,TGI,LXFL 529 NSCLC,85.3 µM
same,TGI,LOX IMVI melanoma,> 100 µM
same,TGI,HOP-18 NSCLC,> 100 µM
same,TGI,COLO 205 colon,> 100 µM
same,TGI,SN12C renal,> 100 µM
same,TGI,KM20L2 colon,> 100 µM
same,TGI,NCI-H460 lung,> 100 µM
same,TGI,CAKI-1 renal,> 100 µM
same,TGI,A498 renal,> 100 µM
same,TGI,SF-268 CNS,> 100 µM
same,TGI,SF-295 CNS,> 100 µM
same,TGI,DMS 114 small cell lung,74.2 µM
same,TGI,MOLT-4 leukemia,96.4 µM
same,TGI,M14 melanoma,> 100 µM
same,TGI,RXF-631 renal,> 100 µM
same,TGI,DMS 273 small cell lung,> 100 µM
same,TGI,UO-31 renal,69.9 µM
same,TGI,HOP-62 NSCLC,> 100 µM
same,TGI,HOP-92 NSCLC,64.9 µM
same,TGI,NCI-H23 lung,> 100 µM
same,TGI,XF 498 CNS,71.6 µM
same,TGI,786-0 renal,> 100 µM
same,TGI,HCT-116 colon,> 100 µM
same,TGI,UACC-62 melanoma,> 100 µM
same,TGI,IGROV1 ovarian,> 100 µM
same,TGI,HT29 colon,> 100 µM
same,TGI,SK-MEL-28 melanoma,80.4 µM
same,TGI,HCT-15 colon,> 100 µM
same,TGI,OVCAR-8 ovarian,> 100 µM
same,TGI,SK-OV-3 ovarian,> 100 µM
